Laboratory results as given in ChEMBL document CHEMBL6177973, “A Novel Compound 3a-M1, from Metabolites of Sinomenine Derivative 3a, Exerts Potent Anti-Aplastic Anemia Activity via IP3R/ORAI-Mediated CTL Ferroptosis” (J Med Chem, 2025).

Columns and labels:
Assay type in all cases: functional, cell-based
IEC-6 = test: Cytotoxicity against rat IEC-6 cells assessed as inhibition of cell viability incubated for 72 hrs by CCK8 assay; settings: IEC-6, 72 h
THP-1 = test: Cytotoxicity against human THP-1 cells assessed as inhibition of cell viability incubated for 72 hrs by CCK8 assay; settings: THP-1, 72 h
RAW264.7 = test: Cytotoxicity against mouse RAW264.7 cells assessed as inhibition of cell viability incubated for 72 hrs by CCK8 assay; settings: RAW264.7, 72 h
NRK-52E = test: Cytotoxicity against rat NRK-52E cells assessed as inhibition of cell viability incubated for 72 hrs by CCK8 assay
HL-60 = test: Cytotoxicity against human HL-60 cells assessed as inhibition of cell viability incubated for 72 hrs by CCK8 assay; settings: HL-60, 72 h
CTLL-2 = test: Cytotoxicity against mouse CTLL-2 cells assessed as inhibition of cell viability incubated for 72 hrs by CCK8 assay; settings: CTLL-2, 72 h
HepG2 = test: Cytotoxicity against human HepG2 cells assessed as inhibition of cell viability incubated for 72 hrs by CCK8 assay; settings: HepG2, 72 h

Molecule `C/C=C/C[C@@H](C)[C@@H](O)[C@H]1C(=O)N[C@@H](CC)C(=O)N(C)CC(=O)N(C)[C@@H](CC(C)C)C(=O)N[C@@H](C(C)C)C(=O)N(C)[C@@H](CC(C)C)C(=O)N[C@@H](C)C(=O)N[C@H](C)C(=O)N(C)[C@@H](CC(C)C)C(=O)N(C)[C@@H](CC(C)C)C(=O)N(C)[C@@H](C(C)C)C(=O)N1C` [CYCLOSPORINE] has an IC50 (IEC-6) of 9.14 µM, an IC50 (THP-1) of 4.36 µM and an IC50 (RAW264.7) of 14.2 µM. The IC50 (NRK-52E) was 35.4 µM, the IC50 (HL-60) was 8.14 µM and the IC50 (CTLL-2) was 2720 nM. The IC50 (HepG2) was 11.7 µM.
